Measured values taken from patent US9914720B2, “Crystalline form of (S)-(2-(6-chloro-7-methyl-1H-benzo[D]imidazol-2-yl)-2-methylpyrrolidin-1-yl)(5-methoxy-2-(2H-1,2,3-triazol-2-yl)phenyl)methanone and its use as orexin receptor antagonists” (IDORSIA PHARMACEUTICALS LTD, priority 2013, dated 2018).

Columns and labels:
[1] = Gravimetric vapour sorption (GVS) analysis, hygroscopicity; format: physicochemical; settings: GVS at 25° C.; for Hygroscopicity: mass change: between 40% and 80% relative humidity; for Hygroscopicity: sorption of moisture mass/mass: humidity program 40-0-95-0-95-40% RH, maximum sorption with hysteresis
Method: Gravimetric Vapour Sorption (GVS) Analysis
The sample was allowed to equilibrate at 40% RH before starting a pre-defined humidity program (40-0-95-0-95-40% RH, steps of 5% ΔRH and with a maximal equilibration time of 24 hours per step were applied. About 20 to 30 mg of each sample was used. The hygroscopic classification is done according to the European Pharmacopeia Technical Guide (1999, page 86), e.g., slightly hygroscopic: increase in mass is less than 2% and equal to or greater than 0.2% mass/mass; hygroscopic: increase in mass is less than 15% and equal to or greater than 2% mass/mass. The mass change between 40% relative humidity and 80% relative humidity in the first adsorption scan is considered.

[2] = Measurement of brain and systemic concentration after oral administration; format: in vivo; settings: 3 h after oral administration (100 mg/kg), n=3, male wistar rats
Method: Measurement of Brain and Systemic Concentration after Oral Administration:
Samples are collected in the same animal at the same time point (+/−5 min). Blood is sampled from the vena cava caudalis into containers with EDTA as anticoagulant and centrifuged to yield plasma. Brain is sampled after cardiac perfusion of 10 mL NaCl 0.9% and homogenized into one volume of cold phosphate buffer (pH 7.4). All samples are extracted with MeOH and analyzed by LC-MS/MS. Concentrations are determined with the help of calibration curves.

Wistar rats = assay: Sedative effects: EEG, EMG and behavioural indices of alertness recorded by radiotelemetry; format: in vivo; settings: 30 mg/kg po, effects analyzed over 6 hours
Method: Sedative Effects: EEG, EMG and Behavioural Indices of Alertness Recorded by Radiotelemetry In Vivo in Wistar Rats.
Electroencephalography (EEG) and Electromyography (EMG) signals were measured by telemetry using TL11M2-F20-EET miniature radiotelemetric implants (Data Science Int.) with two pairs of differential leads.
Surgical implantation was performed under general anesthesia with Ketamin/Xylazin, for cranial placement of one differential pair of EEG electrodes and one pair of EMG leads inserted in either side of the muscles of the neck. After surgery, rats recovered in a thermoregulated chamber and received analgesic treatment with subcutaneous buprenorphine twice a day for 2 d. They were then housed individually and allowed to recover for a minimum of 2 weeks. Thereafter, rats—in their home cage—were placed in a ventilated sound-attenuating box, on a 12-h light/12-h dark cycle, for acclimatization before continuous EEG/EMG recordings started. The telemetric technology that we used in this study allows accurate and stress-free acquisition of biosignals in rats placed in their familiar home cage environment, with no recording leads restricting their movements. Variables analyzed included four different stages of vigilance and sleep, spontaneous activity in the home cage and body temperature. Sleep and wake stages were evaluated using a rodent scoring software (Somnologica Science) directly processing electrical biosignals on 10 s contiguous epochs. The scoring is based on frequency estimation for EEG and amplitude discrimination for EMG and locomotor activity. Using these measurements, the software determines the probability that all components within each epoch best represent active waking (AW), quiet waking (QW), non-REM-sleep (NREM) or REM-sleep (REM). The percentage of total time spent in AW, QW, NREM- and REM-sleep was calculated per 12 h light or dark period. The latency to the onset of the first significant NREM- and REM-sleep episodes and the frequency and duration of those episodes were also calculated. […] All variables were subsequently recorded for 12 h following administration of the orexin receptor antagonist.

COc1ccc(-n2nccn2)c(C(=O)N2CCC[C@@]2(C)c2nc3c(C)c(Cl)ccc3[nH]2)c1 [COMPOUND in crystalline form 1, (S)-(2-(6-chloro-7-methyl-1H-benzo[d]imidazol-2-yl)-2-methylpyrrolidin-1-yl)(5-methoxy-2-(2H-1,2,3-triazol-2-yl)phenyl)methanone]
Hygroscopicity (hygroscopic classification) ([1]; European Pharmacopeia Technical Guide classification, 40% to 80% RH, first adsorption scan): Non hygroscopic (mass change smaller
Hygroscopicity: mass change ([1]; first adsorption scan): then 0.1%)

COc1ccc(-n2nccn2)c(C(=O)N2CCC[C@@]2(C)c2nc3c(C)c(Cl)ccc3[nH]2)c1 [COMPOUND, (S)-(2-(6-chloro-7-methyl-1H-benzo[d]imidazol-2-yl)-2-methylpyrrolidin-1-yl)(5-methoxy-2-(2H-1,2,3-triazol-2-yl)phenyl)methanone]
concentration in brain [B] [2]: 1808 ng/g
concentration in plasma [P] [2]: 1280 ng/mL
effect on NREM sleep compared to vehicle controls (Wistar rats): +27%
effect on REM sleep compared to vehicle controls (Wistar rats): +53%
effect on active wake compared to vehicle controls (Wistar rats): −24%
effect on home cage activity compared to vehicle controls (Wistar rats): −31%

COc1ccc(-n2nccn2)c(C(=O)N2CCC[C@@]2(C)c2nc3c(C)c(Cl)ccc3[nH]2)c1 [COMPOUND in crystalline form 2, (S)-(2-(6-chloro-7-methyl-1H-benzo[d]imidazol-2-yl)-2-methylpyrrolidin-1-yl)(5-methoxy-2-(2H-1,2,3-triazol-2-yl)phenyl)methanone]
Hygroscopicity: mass change ([1]; first adsorption scan): about 0.7%)
Hygroscopicity: sorption of moisture mass/mass [1]: ≤ 1.1% moisture mass/mass.

COc1ccc(-n2nccn2)c(C(=O)N2CCC[C@@]2(C)c2nc3c(C)c(Cl)ccc3[nH]2)c1 [COMPOUND as free base in amorphous form, [(S)-2-(5-chloro-4-methyl-1H-benzoimidazol-2-yl)-2-methyl-pyrrolidin-1-yl]-(5-methoxy-2-[1,2,3]triazol-2-yl-phenyl)-methanone]
Hygroscopicity: mass change ([1]; first adsorption scan): about 0.7%), Hysteresis and sorption
Hygroscopicity: sorption of moisture mass/mass [1]: of up to 2.7% moisture mass/mass.
